Entries after “also recorded” stand apart in the source; their conditions may differ.
Key:
[1] = tested on: rough mutant E. coli J5 bacteria; test: Radial diffusion bactericidal assay, E. coli J5; format: cell-based; conditions: for pmol added to well to achieve a 30 mm^2 bactericidal zone, E. coli J5 / bactericidal activity (in words): radial diffusion; for pmol added to well to achieve a 30 mm^2 bactericidal zone, E. coli J5: PROBIT analysis, E. coli J5 (rough); for bactericidal activity (in words): E. coli J5
Method in brief: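 Wells received 5 or 10 μL of BPI fragment, pre-incubated 3 h at 37 °C. The underlayer agarose carried washed log-phase organisms at 4×10^6 CFU/mL.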

[2] = tested on: E. coli 0111:B4 (smooth) bacteria; test: Radial diffusion bactericidal assay, E. coli 0111:B4; format: cell-based; conditions: radial diffusion; for pmol added to well to achieve a 30 mm^2 bactericidal zone, E. coli O111:B4: PROBIT analysis, E. coli O111:B4 (smooth)
Staphylococcus aureus = test: Radial diffusion bactericidal assay, Staphylococcus aureus; format: cell-based
[3] = tested on: L-form of S. aureus ATCC 19640; test: Activity against L-forms of gram-positive bacteria; format: cell-based
Procedure: The bactericidal capacity of BPI peptides provided by the invention was also tested against Gram-positive bacteria (See Table VIII A). […] In addition, peptides were tested for their activity against L-forms of gram-positive bacteria, such as the L-form of S. aureus ATCC 19640.

[4] = 3H-heparin binding assay (affinity and capacity)
Method in brief: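 Bound 3H-heparin was counted by liquid scintillation after 1 h incubation at 4 °C with fragments immobilised on PVDF-bottomed wells, then washing in blocking buffer. Signal was corrected for BSA-related background, and varying amounts of rBPI23 were used as positive control.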

E. coli 0113 LPS = test: Limulus Amoebocyte Lysate (LAL) inhibition assay; format: biochemical
Procedure: BPI proteolytic fragments produced according to Example 1 were subjected to a Limulus Amoebocyte Lysate (LAL) inhibition assay to determine LPS binding properties of these fragments. Specifically, each of the fragments were mixed in Eppendorf tubes with a fixed concentration of E. coli 0113 LPS (4 ng/mL final concentration) and incubated at 37° C. for 3 hours with occasional shaking. Addition controls comprising rBPI23 at 0.05 μg/mL were also tested. Following incubation, 360 μL of Dulbecco's phosphate buffered saline (D-PBS; Grand Island Biological Co. (GIBCO), Long Island, N.Y.) were added per tube to obtain an LPS concentration of 200 pg/mL for the LAL assay. Each sample was then transferred into Immulon II strips (Dynatech, Chantilly, Va.) in volumes of 50 μl per well.
Limulus amoebocyte Lysate (Quantitative Chromogenic LAL kit, Whitaker Bioproducts, Inc., Walkersville, Md.) was added at 50 μL per well and the wells were incubated at room temperature for 25 minutes. Chromogenic substrate was then added at a volume of 100 μL per well and was well mixed. After incubation for 20 to 30 minutes at room temperature, the reaction was stopped with addition of 100 μL of 25% (v/v) acetic acid. Optical density at 405 nm was then measured in a multiplate reader (Model Vmax, […], Menlo Park, Calif.) with the results shown in FIG. 2 in terms of percent inhibition of LPS. In this Figure, the filled circle represents rBPI23; the open circle represents Asp-N fragment A3; the x represents Asp-N fragment A2, the filled square represents Asp-N fragment A4; the filled triangle represents Asp-N fragment A1A2; the open square represents Asp-N fragment A6a; the small open triangle represents CNBr fragment C3; and the small filled square represents CNBr fragment C1/C5.

E. coli strain 07-K1 = test: Radial diffusion bactericidal assay, E. coli 07-K1; format: cell-based; conditions: FIG. 10c
Procedure: BPI proteolytic fragments produced according to Example 1 were screened for bactericidal effects using rough mutant E. coli J5 bacteria in a radial diffusion assay. Specifically, an overnight culture of E. coli J5 was diluted 1:50 into fresh tryptic soy broth and incubated for 3 hours at 37° C. to attain log phase growth of the culture. Bacteria were then pelleted at 3,000 rpm for 5 minutes in a Sorvall RT6000B centrifuge (Sorvall Instruments, Newton, Conn.). 5 mL of 10 mM sodium phosphate buffer (pH 7.4) was added and the preparation was re-pelleted. […] The bacteria were diluted to 4×10^6 CFU/mL in 10 mL of molten underlayer agarose (at approximately 45° C.) and inverted repeatedly to mix in 15 mL polypropylene tubes conventionally used for this purpose.
The entire contents of such tubes were then poured into a level square petri dish and distributed evenly by rocking the dish side-to-side. […] A series of wells were then punched into the hardened agarose using a sterile 3 mm punch attached to a vacuum apparatus. The punch was sterilized with 100% alcohol and allowed to air dry prior to use to avoid contaminating the bacterial culture.
5 or 10 μL of each of the BPI fragments were carefully pipetted into each well. As a negative control, dilution buffer (pH 8.3) was added to a separate well, and rBPI23 at concentrations of 5 μg/mL and 1 μg/mL were also added as positive controls. Each plate was incubated at 37° C. for 3 hours, and then 10 mL of molten overlayer agarose (at approximately 45° C.) was added into the level petri dish, allowed to harden and incubated overnight at 37° C. […] The bacterial zones were measured with a micrometer.
Additional experiments were performed using various other bacteria as target cells to examine the range of bactericidal killing of these BPI functional domain peptides.

Klebsiella pneumoniae = test: Radial diffusion bactericidal assay, Klebsiella pneumoniae; format: cell-based
Pseudomonas aeruginosa = test: Radial diffusion bactericidal assay, Pseudomonas aeruginosa; format: cell-based; conditions: FIG. 11a; up to about 2000 pmol
E. coli O18:K1:H7 = test: Radial diffusion bactericidal assay, E. coli O18:K1:H7; format: cell-based; conditions: FIG. 11b; up to about 2000 pmol
E. coli O75 = test: Radial diffusion bactericidal assay, E. coli O75; format: cell-based; conditions: FIG. 11d; up to about 2000 pmol
[5] = In vitro heparin-mediated lengthening of APTT / clotting time of heparinized plasma; format: biochemical, human
Procedure: In vitro, the effect of BPI combination functional domain peptides was determined on heparin-mediated lengthening of activated partial […] (APTT). The APTT is lengthened by the presence of endogenous or exogenous inhibitors of thrombin formation, such as therapeutically administered heparin. Thus, agents which neutralize the anti-coagulant effects of heparin will reduce the APTT measured by the test. Citrated human plasma (200 μL) was incubated for 1 minute at 37° C. with either 15 μL of diluent (0.15 M NaCl, 0.1 M Tris-HCl, pH 7.4) or 15 μL of the diluent also containing 25 μg/mL heparin (187 units/mg). Various concentrations (from 0.0 to 56 μg/mL) of rBPI23, rBPI21Δcys, or BPI combination peptides BPI.29 (the DIII homodimer) and BPI.30 (heterodimer DII+DIII) in a volume of 15 μL were added, followed immediately by 100 μL of thrombin reagent (Catalog No. 845-4, Sigma Chemical Co., St. Louis. MO). Clotting time ([…]) was measured using a BBL Fibrometer (Becton Dickenson Microbiology Systems, Cockeysville, Md.). […] FIG. 12e illustrates the results obtained with BPI.30 on a non-log scale.

[6] = In vivo APTT in heparinized rats; design: species or system Sprague-Dawley rats; conditions: 100 U/kg heparin i.v., test protein 5 minutes later, blood 2 minutes after
Procedure: The in vivo effect of exemplary BPI combination peptides on APTT in heparinized rats was determined and compared with the in vivo effect of rBPI23. APTT is lengthened by the presence of endogenous or exogenous inhibitors of thrombin formation, such as therapeutically administered heparin. Agents which neutralize the anti-coagulant effects of heparin will reduce the APTT as measured by this test. Sprague-Dawley rats housed under NIH guidelines were administered with 100 U/kg heparin by bolus intravenous injections via the animals' tail vein followed 5 minutes later by administration of varying amounts of test or control protein as compared with rBPI23. The APTT was then determined from blood samples collected from the abdominal aorta 2 minutes after the administration of the test or control protein. The APTT of untreated animals, as well as animals treated only with a BPI peptide, was also determined.

[7] = tested on: LPS-stimulated NO production by RAW 264.7 cells; test: LPS-stimulated NO production by RAW 264.7 cells; format: cell-based, mouse
Procedure: An additional LPS neutralization screening assay for BPI functional domain peptides was developed using an assay for NO production in mouse cells treated with LPS (see Lorsbach et al., 1993, J. Biol. Chem. 268: 1908-1913). In this assay, mouse RAW 264.7 cells (ATCC Accession No. TIB71) were treated with bacterial LPS. The cells were incubated in 96-well plates and stimulated for 2 hours with E. coli 0113 LPS or zymosan, in the presence or absence of _-interferon, rLBP, fetal bovine serum (FBS) or normal human serum (NHS), or rBPI21Δcys. After this incubation, the cells were washed with fresh media and incubated overnight in media containing 10% FCS. The NO released from the cells accumulated in the media and spontaneously converted to nitrite. This nitrite was assayed in situ by the Griess reaction, as follows. The nitrite was reacted with the primary amine of an added sulfanilamide and formed a diazonium salt. This salt was then reacted with added naphthylethylenediamine to form a red azo-dyc. The Griess reaction was performed at room temperature in about 10 minutes. The amount of produced NO was estimated from a standard curve of Griess reaction products determined spectrophotometrically as Absorbance at a wavelength of 550 nm.

## IKISGKWKAQKRKLK [BPI.120]
[1]
  pmol added to well to achieve a 30 mm^2 bactericidal zone, E. coli J5: b (no detectable activity up to 5 μg/well)
[2]
  pmol added to well to achieve a 30 mm^2 bactericidal zone, E. coli O111:B4: b (no detectable activity up to 5 μg/well)
Staphylococcus aureus; radial diffusion, PROBIT analysis, S. aureus
  pmol added to well to achieve a 30 mm^2 bactericidal zone, S. aureus: b (no detectable activity up to 5 μg/well)
[3]
  activity against L-form bacteria (in words): active against these L-form bacteria

## KWKAQKRFLK [BPI.8]
[1]
  bactericidal activity (in words): little to no bactericidal activity; also recorded: no detectable bactericidal activity against E. coli J5 cells at concentrations of 1000 μg/mL; also recorded: little or no bactericidal activity
  pmol added to well to achieve a 30 mm^2 bactericidal zone, E. coli J5: 25,695.10 pmol
[4]
  heparin binding activity (in words): little or no heparin binding activity
  heparin binding capacity (in words): low heparin binding capacity
[4]; heparin bound at saturation
  Heparin Capacity: 92.2 ng
[4]; read-out: Heparin Affinity
  Kd: 574 nM
E. coli 0113 LPS
  LAL / LPS inhibition activity (in words): no significant LPS inhibition activity
[2]; E. coli 0111:B4
  bactericidal activity (in words): little to no bactericidal activity
[2]
  pmol added to well to achieve a 30 mm^2 bactericidal zone, E. coli O111:B4: b (no detectable activity up to 5 μg/well)
E. coli strain 07-K1
  bactericidal activity (in words): low levels of bactericidal activity
Klebsiella pneumoniae; FIG. 11c, up to about 2000 pmol
  bactericidal activity (in words): no bactericidal activity
Klebsiella pneumoniae; FIG. 10d
  bactericidal activity (in words): no bactericidal activity at concentrations of 800 μg/mL
Staphylococcus aureus; FIG. 10e
  bactericidal activity (in words): no bactericidal activity at concentrations of 800 μg/mL
Pseudomonas aeruginosa
  bactericidal activity (in words): no bactericidal activity
E. coli O18:K1:H7
  bactericidal activity (in words): no bactericidal activity
E. coli O75
  bactericidal activity (in words): no bactericidal activity

B1: rBPI23: recombinant 23 kD amino-terminal fragment, approximately the first 199 amino acid residues of human BPI (protein)
chain: VNPGVVVRISQKGLDYASQQGTAALQKELKRIKIPDYSDSFKIKHLGKGHYSFYSMDIREFQLPSSQISMVPNVGLKFSISNANIKISGKWKAQKRFLKMSGNFDLSIEGMSISADLKLGSNPTSGKPTITCSSCSSHINSVHVHISKSKVGWLIQLFHKKIESALRN
[1]
  lowest amount with measurable bactericidal activity: 0.75 pmol/well
  bactericidal activity (in words): showed bactericidal activity
[4]; 100 picomoles of each fragment per well, saturating 3H-heparin 20 μg/mL, mean of duplicate wells ± range
  cpm ^3H-Heparin bound: 51,222 ± 1,808 cpm
E. coli 0113 LPS; read-out: IC50 of inhibition of the LPS-induced LAL reaction
  IC50: 9 nM
E. coli strain 07-K1
  bactericidal activity (in words): no bactericidal activity at concentrations of 100 μg/mL; also recorded: low bactericidal activity even at concentrations of 1000 μg/mL
[5]; FIG. 12g
  effect on the clotting time of heparinized blood (in words): smaller effect
[5]; citrated human plasma, 25 μg/mL heparin, 0.0 to 56 μg/mL
  effect on heparin-mediated lengthening of APTT (in words): inhibits the heparin-mediated lengthening of APTT
[6]
  APTT in heparinized rats (in words): administration of about 5 mg/kg results in a APTT of the heparinized and BPI-treated animals that is almost the same as the untreated control animals
[7]
  IC50 of inhibition of LPS-stimulated NO production: 0.03 to 0.1 µg/mL

From patent publication US20040023884A1, “Biologically active peptides from functional domains of bactericidal/permeability-increasing protein and uses thereof” (priority 1993, published 2004)
